In publication doi:10.1101/2025.07.03.662851v1 (biorxiv, 2025):

Molecular target: T1, recombinant wild-type human asparagine synthetase (ASNS) (Homo sapiens, UniProt P08243)
T1 sequence (P08243 2-561): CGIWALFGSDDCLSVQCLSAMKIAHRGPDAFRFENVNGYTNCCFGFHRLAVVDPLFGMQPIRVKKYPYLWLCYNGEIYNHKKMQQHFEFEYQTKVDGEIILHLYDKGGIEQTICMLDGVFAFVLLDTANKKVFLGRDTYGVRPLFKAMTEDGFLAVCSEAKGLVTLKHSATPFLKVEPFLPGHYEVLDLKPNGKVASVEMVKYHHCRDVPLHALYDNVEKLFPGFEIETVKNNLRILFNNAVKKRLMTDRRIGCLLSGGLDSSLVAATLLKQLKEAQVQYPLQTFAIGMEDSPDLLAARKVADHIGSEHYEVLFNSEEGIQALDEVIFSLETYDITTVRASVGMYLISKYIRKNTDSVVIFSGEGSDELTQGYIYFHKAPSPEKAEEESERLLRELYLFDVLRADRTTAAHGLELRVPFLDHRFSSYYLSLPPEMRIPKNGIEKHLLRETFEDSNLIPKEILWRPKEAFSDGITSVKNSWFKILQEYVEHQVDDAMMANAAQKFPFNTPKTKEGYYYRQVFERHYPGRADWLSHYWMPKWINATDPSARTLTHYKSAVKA
Assay: PPi production, continuous NADH-coupled assay
Assay type: biochemical

CC[C@H](N)C(=O)N1C[C@@H](c2ccc(F)cc2)[C@H](O)[C@@H]1C(=O)NC(c1ccccc1)c1ccccc1 [ASX-173]
Ki: 0.4 nM
